Data as given in patent US20220127247A1, “N-(PYRIDIN-2-YL)PYRIDINE-SULFONAMIDE DERIVATIVES AND THEIR USE IN THE TREATMENT OF DISEASE” (NOVARTIS AG, priority 2019, published 2022).

Tests used:
delF508-CFTR [1] = biological target: T1, delF508-CFTR (Homo sapiens, UniProt P13569, DEL508-508); experiment: delF508-CFTR functional activity in primary human bronchial epithelial cells (HBECs), Multi-Transepithelial Clamp Circuit (MTECC-24) assay; format: cell-based; conditions: for EC50: primary human delF508-CFTR bronchial epithelial cells, 24 h with compound, equivalent short circuit current (Ieq), forskolin plus potentiator, mean of at least two replicates, read-out: MTECC24-CFHBEC EC50; for MTECC24-CFHBEC Amax %: test compound added 24 h before assay, with potentiator (S)-3-amino-6-methoxy-N-(3,3,3-trifluoro-2-hydroxy-2-methylpropyl)-5-(trifluoromethyl)picolinamide, relative to 2 μM 3-(6-(1-(2,2-difluorobenzo[d][1,3]dioxol-5-yl)cyclopropane-1-carboxamido)-3-methylpyridin-2-yl)benzoic acid + 0.5 μM N-(2,4-di-tert-butyl-5-hydroxyphenyl)-4-oxo-1,4-dihydroquinoline-3-carboxamide
T1 construct: expressed in transfected cells
T1 sequence (P13569 with tags, fused parts or gaps DEL508-508): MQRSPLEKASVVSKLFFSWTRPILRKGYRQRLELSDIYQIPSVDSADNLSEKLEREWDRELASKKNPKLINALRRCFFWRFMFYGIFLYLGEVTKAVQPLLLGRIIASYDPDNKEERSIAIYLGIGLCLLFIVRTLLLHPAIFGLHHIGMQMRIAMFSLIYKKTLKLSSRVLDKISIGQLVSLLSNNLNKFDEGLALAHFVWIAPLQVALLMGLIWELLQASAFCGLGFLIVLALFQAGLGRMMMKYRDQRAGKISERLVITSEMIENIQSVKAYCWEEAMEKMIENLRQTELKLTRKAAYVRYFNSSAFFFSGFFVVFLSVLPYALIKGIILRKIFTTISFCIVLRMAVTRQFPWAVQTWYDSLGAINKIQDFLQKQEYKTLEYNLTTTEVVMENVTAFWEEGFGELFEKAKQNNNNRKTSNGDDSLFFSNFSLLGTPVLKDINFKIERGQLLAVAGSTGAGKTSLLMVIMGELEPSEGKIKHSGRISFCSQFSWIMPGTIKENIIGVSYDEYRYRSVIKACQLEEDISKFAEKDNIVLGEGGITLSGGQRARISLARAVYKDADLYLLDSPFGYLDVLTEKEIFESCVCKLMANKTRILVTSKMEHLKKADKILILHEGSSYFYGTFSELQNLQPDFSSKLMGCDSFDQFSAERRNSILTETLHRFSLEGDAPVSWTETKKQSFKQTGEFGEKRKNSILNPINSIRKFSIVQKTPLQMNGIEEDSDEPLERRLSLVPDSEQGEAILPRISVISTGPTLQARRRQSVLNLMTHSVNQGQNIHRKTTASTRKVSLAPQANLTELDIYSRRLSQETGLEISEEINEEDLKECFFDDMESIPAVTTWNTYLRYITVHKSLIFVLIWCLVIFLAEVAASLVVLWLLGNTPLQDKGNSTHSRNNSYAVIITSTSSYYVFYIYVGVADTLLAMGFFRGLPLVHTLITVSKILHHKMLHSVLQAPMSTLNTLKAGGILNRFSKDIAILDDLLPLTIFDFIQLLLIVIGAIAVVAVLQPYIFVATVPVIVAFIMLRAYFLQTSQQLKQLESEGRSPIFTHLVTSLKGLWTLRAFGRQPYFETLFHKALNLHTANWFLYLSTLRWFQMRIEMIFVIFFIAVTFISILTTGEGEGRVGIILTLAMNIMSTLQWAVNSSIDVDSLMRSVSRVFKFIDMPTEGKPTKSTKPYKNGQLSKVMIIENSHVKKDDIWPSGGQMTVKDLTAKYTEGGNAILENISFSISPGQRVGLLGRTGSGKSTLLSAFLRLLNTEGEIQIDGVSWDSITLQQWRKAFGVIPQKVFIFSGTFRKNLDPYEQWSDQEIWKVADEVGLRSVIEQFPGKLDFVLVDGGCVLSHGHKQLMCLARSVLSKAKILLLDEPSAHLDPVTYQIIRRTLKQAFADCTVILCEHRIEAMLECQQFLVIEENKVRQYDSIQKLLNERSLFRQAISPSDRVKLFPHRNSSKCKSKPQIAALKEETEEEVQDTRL
From the text: Measurement of delF508-CFTR Functional Activity in Primary Human Bronchial Epithelial Cells (HBECs) Using Multi-Transepithelial Clamp Circuit (MTECC-24) Assay
This assay measures the functional activity of the CFTR channel (Chloride ion transport) in patient derived primary human bronchial epithelial cells with forskolin activation and in the presence of the CFTR corrector/potentiator combination.
Primary human delF508-CFTR bronchial epithelial cells were and cultured according to previously established methods (Neuberger, T. et, al., Methods in Molecular Biology, 2011, 741, pp 39-54). Briefly, before thawing the HBEC cells, T25 flasks were coated with 2 mL of 3T3 conditioned media (MTI-GlobalStem, Cat #GSM9100) for at least 12 hours in 37° C. CO2 incubator. 1.7×10^5 cells were seeded into one T25 flask with 5 mL of HBE growth media (BEBM with supplements (Lonza, Cat #CC-3170) with 10 nM of retinoic acid (Sigma, Cat #R-2625) and 1% of PSA (Hyclone, Cat #SV30079.01). Media was changed every day till the cells were 100% confluent. Cells were seeded into T75 flasks (pre-coated with 5 mL of 3T3 conditioned media for more than 12 hrs) at 4.95×10^5 cells/T75 flask in 15 mL of HBE growth media. Flasks were fed everyday with fresh HBE growth media until the cells were confluent. 24-well transwell plates (Corning, Cat #3378) were coated with 3T3 conditioned media (70 μL on top of the filter, 350 μL to the bottom of the well) overnight in the 37° C. CO2 incubator. Cells were seeded in the pre-coated 24-well transwell plates at 1.7×10^5 cell/well with 700 μL of growth media at the bottom of the well and 200 μL of growth media at the top of the filter. After 24 hrs, cells were switched into HBE differentiation media ((DMEM/F12 (Gibco, Cat #11330-032) supplement with 2% Ultroser G (Pall, Cat #15950-017), 2% of Fetal Clone II (Hyclone, Cat #SH30066.03), 0.25% Bovine Brain Extract (Lonza, Cat #CC-4098), 1% of PSA, 2.5 μg/mL of Insulin (Sigma, Cat #19278), 20 nM of Hydrocortisone (Sigma, Cat #H0888), 500 nM of Triiodothyronine (Sigma, Cat #T6397), 2.5 μg/mL of Transferrin (Sigma, Cat #T8158), 250 nM of Ethanolamine (Sigma, Cat #E0135), 1.5 μM of Epinephrine (Sigma, Cat #E4250), 250 nM of Phosphoethanolamine (Sigma, Cat #P0503), 10 nM of retinoic acid)) with 200 μL on top of the filter (apical side) and 700 μL at the bottom of the well (basolateral side). Cells were fed every other day with the differentiation media. After 4 days, cells were exposed to air/liquid interface. Then cells were fed every other day for 4 weeks before fully differentiated.
Cells were washed with 3 mM DTT in PBS at 70 ul/well for 30 min at 37° C. 6 days before the assay. 3 days before the assay, cells were washed again with PBS at 70 ul/well for 30 min at 37° C. Then cells were treated with compound for 24 hrs before the assay.
Following 24 hr treatment with compound, cells were transferred into plates containing 750 ul of assay media on basolateral side and 250 ul on apical side (Assay medium: F-12 Coon's modified, 20 mM HEPES pH7.4 with TRIS Base, No FCS or bicarbonate). The plates wee then transferred to the heated plate compartments (basolateral buffer temperature ˜36.5° C. on the heating block) of the TECC24 system for 45 mins prior to measurements.
Modulators were added sequentially as follows while the TECC24 instrument recorded the equivalent short circuit current (Ieq):
Prior to dilution into assay medium the stocks were as follows: • Benzamil stock: 10 mM in DMSO • Forskolin Stock: 50 mM in DMSO • N-(2,4-di-tert-butyl-5-hydroxyphenyl)-1,4-dihydro-4-oxoquinoline-3-carboxamide: 50 mM in DMSO • (S)-3-amino-6-methoxy-N-(3,3,3-trifluoro-2-hydroxy-2-methylpropyl)-5-(trifluoromethyl)picolinamide: 50 mM stock 100% DMSO • Bumetanide stock: 20 mM in EtOH
The data was normalized using the median signal from wells treated with 0.1% DMSO as a baseline. Curve fitting and EC50 calculations were performed using the following equation: […]

delF508-CFTR [2] = biological target: T1, delF508-CFTR; experiment: Measurement of delF508-CFTR-HRP surface expression in CFBE41o- cells; format: cell-based; conditions: for EC50: HRP-tagged delF508-CFTR in CFBE41o- cells, 24 h with compound, luminescence, 10-point curve, top 10 μM; for Emax: efficacy relative to reference compound 3-(6-(1-(2,2-difluorobenzo[d][1,3]dioxol-5-yl)cyclopropane-1-carboxamido)-3-methylpyridin-2-yl)benzoic acid, CFBE41o- cells, 24 h, read-out: DelF508-CFTR-HRP Amax %
Procedure, shortened: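 CFBE41o- cells stably expressing delF508-CFTR with HRP in the fourth extracellular loop, induced with 500 ng/mL doxycycline for 48 h, then treated with compound (top 10 μM, 10-point 3-fold) for 24 h at 37° C. Surface HRP detected by luminescence with cell-impermeant substrate; EC50 from logistic fit of triplicates, normalized to lowest concentration.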

EC50 (delF508-CFTR [1]) | MTECC24-CFHBEC Amax % (delF508-CFTR [1]) | EC50 (delF508-CFTR [2]) | Emax (delF508-CFTR [2]) | SMILES
26 nM | 208% | 1370 nM | – | Cc1ccccc1-c1nc(NS(=O)(=O)c2cccc(N(CCCC(=O)O)C(C)C)n2)ccc1C(F)(F)F [Compound 94, 4-(isopropyl(6-(N-(6-(o-tolyl)-5-(trifluoromethyl)pyridin-2-yl)sulfamoyl)pyridin-2-yl)amino)butanoic acid]
24 nM | 148% | 1680 nM | – | Cc1ccc(F)cc1-c1nc(NS(=O)(=O)c2cccc(N(CCCC(=O)O)C(C)C)n2)ccc1C(F)(F)F [Compound 95, 4-((6-(N-(6-(5-fluoro-2-methylphenyl)-5-(trifluoromethyl)pyridin-2-yl)sulfamoyl)pyridin-2-yl)(isopropyl)amino)butanoic Acid]
2 nM | 202% | 720 nM | – | CCc1ccccc1-c1nc(NS(=O)(=O)c2cccc(N(CCCC(=O)O)C(C)C)n2)ccc1C(F)(F)F [Compound 96, 4-((6-(N-(6-(2-ethylphenyl)-5-(trifluoromethyl)pyridin-2-yl)sulfamoyl)pyridin-2-yl)(isopropyl)amino)butanoic Acid]
4 nM | 190% | 1360 nM | – | CCc1ccccc1-c1nc(NS(=O)(=O)c2cccc(N(CC)CCCC(=O)O)n2)ccc1C(F)(F)F [Compound 97, 4-(ethyl(6-(N-(6-(2-ethylphenyl)-5-(trifluoromethyl)pyridin-2-yl)sulfamoyl)pyridin-2-yl)amino)butanoic Acid]
131 nM | 298% | 1260 nM | – | CCCCN(CCCC(=O)O)c1cccc(S(=O)(=O)Nc2ccc(C(F)(F)F)c(-c3cc(F)ccc3C)n2)n1 [Compound 102, 4-(butyl(6-(N-(6-(5-fluoro-2-methylphenyl)-5-(trifluoromethyl)pyridin-2-yl)sulfamoyl)pyridin-2-yl)amino)butanoic Acid]
73 nM | 142% | 1430 nM | – | Cc1ccccc1-c1nc(NS(=O)(=O)c2cccc(N(CCCC(=O)O)CC3CC3)n2)ccc1C(F)(F)F [Compound 103, 4-((cyclopropylmethyl)(6-(N-(6-(o-tolyl)-5-(trifluoromethyl)pyridin-2-yl)sulfamoyl)pyridin-2-yl)amino)butanoic Acid]
6 nM | 182% | 1030 nM | – | CCc1ccc(F)cc1-c1nc(NS(=O)(=O)c2cccc(N(CC)CCCC(=O)O)n2)ccc1C(F)(F)F [Compound 110, 4-(ethyl(6-(N-(6-(2-ethyl-5-fluorophenyl)-5-(trifluoromethyl)pyridin-2-yl)sulfamoyl)pyridin-2-yl)amino)butanoic Acid]
101 nM | 211% | 1680 nM | – | CCN(CCCC(=O)O)c1cccc(S(=O)(=O)Nc2ccc(C(F)(F)F)c(-c3ccccc3C)n2)n1 [Compound 114, 4-(ethyl(6-(N-(6-(o-tolyl)-5-(trifluoromethyl)pyridin-2-yl)sulfamoyl)pyridin-2-yl)amino)butanoic Acid]
70 nM | 146% | 1510 nM | – | CCN(CCCC(=O)O)c1cccc(S(=O)(=O)Nc2ccc(C(F)(F)F)c(-c3cc(F)ccc3C)n2)n1 [Compound 115, 4-(ethyl(6-(N-(6-(5-fluoro-2-methylphenyl)-5-(trifluoromethyl)pyridin-2-yl)sulfamoyl)pyridin-2-yl)amino)butanoic Acid]
270 nM | 151% | 1850 nM | 563% | Cc1ccccc1-c1nc(NS(=O)(=O)c2cccc(N(CCC(=O)O)C3CC3)n2)ccc1C(F)(F)F [Compound 118, 3-(cyclopropyl(6-(N-(6-(o-tolyl)-5-(trifluoromethyl)pyridin-2-yl)sulfamoyl)pyridin-2-yl)amino)propanoic Acid]
422 nM | 114% | 1360 nM | 643% | Cc1ccccc1-c1nc(NS(=O)(=O)c2cccc(N(CCCC(=O)O)C3CC3)n2)ccc1C(F)(F)F [Compound 125, 4-(cyclopropyl(6-(N-(6-(o-tolyl)-5-(trifluoromethyl)pyridin-2-yl)sulfamoyl)pyridin-2-yl)amino)butanoic Acid]
14 nM | 207% | 970 nM | – | Cc1ccc(F)cc1-c1nc(NS(=O)(=O)c2cccc(N(CCC(=O)O)CC(C)C)n2)ccc1C(F)(F)F [Compound 126, 3-((6-(N-(6-(5-fluoro-2-methylphenyl)-5-(trifluoromethyl)pyridin-2-yl)sulfamoyl)pyridin-2-yl)(isobutyl)amino)propanoic Acid]
21 nM | 247% | 720 nM | – | Cc1ccc(F)cc1-c1nc(NS(=O)(=O)c2cccc(N(CCCC(=O)O)CC(C)C)n2)ccc1C(F)(F)F [Compound 127, 4-((6-(N-(6-(5-fluoro-2-methylphenyl)-5-(trifluoromethyl)pyridin-2-yl)sulfamoyl)pyridin-2-yl)(isobutyl)amino)butanoic Acid]
31 nM | 277% | 1110 nM | – | Cc1ccccc1-c1nc(NS(=O)(=O)c2cccc(N(CCC(=O)O)CC(C)C)n2)ccc1C(F)(F)F [Compound 128, 3-(isobutyl(6-(N-(6-(o-tolyl)-5-(trifluoromethyl)pyridin-2-yl)sulfamoyl)pyridin-2-yl)amino)propanoic Acid]
154 nM | 83% | 1080 nM | – | Cc1ccccc1-c1nc(NS(=O)(=O)c2cccc(N(CCCC(=O)O)CC(C)C)n2)ccc1C(F)(F)F [Compound 129, 4-(isobutyl(6-(N-(6-(o-tolyl)-5-(trifluoromethyl)pyridin-2-yl)sulfamoyl)pyridin-2-yl)amino)butanoic Acid]
327 nM | 95% | 1380 nM | – | CCCN(CCCC(=O)O)c1cccc(S(=O)(=O)Nc2ccc(C(F)(F)F)c(-c3cc(F)ccc3C)n2)n1 [Compound 131, 4-((6-(N-(6-(5-fluoro-2-methylphenyl)-5-(trifluoromethyl)pyridin-2-yl)sulfamoyl)pyridin-2-yl)(propyl)amino)butanoic Acid]
